“And” between values parts separate entries of the source, which are not always exact repeats. Equal values may be shown once.
Legend:
[1] = test system: G1 (DNA, G4) AGGGTTAGGGTTAGGGTTAGGG; experiment: CD melting at 295 nm; conditions: 100 mM NaCl, 10 mM Li cacodylate, pH 7.3, 6 μM DNA
[2] = test system: G2T6 (DNA, G4) AGGGTTAGGGTTAGGGTTAGGGTTATTATTATTATTATTAGGGTTAGGGTTAGGGTTAGGG; experiment: CD melting at 295 nm; conditions: 100 mM NaCl; 10 mM Li cacodylate, pH 7.3; 6 μM compound (12 μM salphen units), 3 μM DNA
[3] = test system: G2T6 (Na+) dimeric HTelo G4 DNA, AGGG(TTAGGG)3(TTA)5(TTAGGG)4; experiment: CD melting with G2T6 (Na+); format: binding, human; conditions: CD melting at 295 nm, 25 to 95 °C at 2 °C/min; 100 mM NaCl, 10 mM Li cacodylate, pH 7.3; [G4 unit] 6 μM (3 μM dimeric sequence), [salphen unit] 12 μM
Experimental: (§1) Next, the DNA binding properties of the monomeric and dimeric compounds were studied. […] The following notation is used: […] The CD melting experiments were conducted solely with Na^+ stabilized DNA, which forms an antiparallel topology in solution (cf., in the presence of K^+ a mixture of topologies is observed). During the assay the temperature was increased from 25 to 95 °C upon which the intensity of signals with negative ellipticity at ca. 265 nm and positive ellipticity at ca. 295 (characteristic of an antiparallel G4 structure) decreased-see Figure 4a. This indicates the expected unfolding of the G4 DNA structure as the temperature increases. The changes in intensity were subsequently used to produce the corresponding melting curves (Figure 4b) for each sequence in the absence and presence of the different compounds under study. From these curves, the ΔTm values for the different sequences and compounds were determined, and the results are summarized in Figure 4c (see Supplementary Table 1 for values). […] G-Quadruplex oligonucleotides were purchased from Eurogentec (Belgium), and CT-DNA was purchased from Sigma-Aldrich. […] Prior to use, the DNA stock solutions were annealed by heating at 95 °C for 5 min and then cooling to room temperature overnight. Experiments were carried out on a Jasco J-810 spectrophotometer using a 1 cm quartz cuvette. Temperature was controlled using a Peltier module. The signal at 295 nm was monitored as temperature was increased for 25 to 95 °C at a rate of 2 °C/min. CD melting experiments were carried out with the appropriate G4 DNA (100 mM NaCl, 10 mM Li cacodylate, pH 7.3). Sample preparation was carried out by combining stock solutions of ligand and DNA in the appropriate buffer. […] Melting temperatures were obtained by curve fitting in Graphpad Prism 8. The data was normalized and fitted to a variable slope Hill equation, and the melting temperature was defined at the temperature at which y = 0.5.

[4] = test system: G1 (K+) monomeric HTelo G4 DNA; experiment: Emission titration with G1 (K+); format: binding, human; conditions: Table S2, unit not given, ligand 2 μM, 100 mM KCl, 10 mM Li cacodylate, pH 7.3, exc 440 nm, em 590 nm, triplicate
Experimental: (§2) Next, emission titrations were carried out with the emissive Pt^II compounds M2 and D3–8 and G4/duplex DNA to obtain association constants. Both Na^+ and K^+ stabilized monomeric and dimeric G4 DNA were investigated. Additionally, titrations were carried out with CT-DNA to evaluate the selectivity for G4 versus duplex DNA. Figure 5 summarizes the obtained results (see Figures S24–S37 and Table S2 for a full set of titration data). First discussed are the experiments conducted in Na^+ buffer, in which the G4 topology formed is antiparallel.[41] […] As discussed previously, this could potentially be caused by a “sandwiched” binding mode in which the metal-salphen complex sits between two G-quadruplex units. For dimeric metal-salphen complexes D3–8, however, there are several differences when compared to the CD melting studies. […] Upon increasing the linker length to a two-amino-acid sequence (RR and KK for compounds D4 and D5, respectively), larger Ka values were obtained with minimal change to the pattern of selectivity. […] Increasing the linker length to an eight-amino-acid sequence (RRRRRRRR) led to a similar stabilization of G2T6, while G1 stabilization increased.
(§3) G-Quadruplex oligonucleotides were purchased from Eurogentec (Belgium), and CT-DNA was purchased from Sigma-Aldrich. Stock solutions were prepared via dilution in the appropriate buffers to concentrations of 300–400 μM determined by UV–vis measurements in which increasing amounts of DNA were added to a cuvette and the absorbance at 260 nm recorded using an Agilent Cary UV 60 spectrometer. Prior to use, the DNA stock solutions were annealed by heating at 95 °C for 5 min and then cooling to room temperature overnight.
(§4) Experiments were carried out using a BMG Clariostar Microplate reader with Greiner Bio-One half-volume (100 μL/well) plates. Excitation was carried out at 440 nm and recorded from 500 to 700 nm in addition to a matrix scan at 590 nm. Titrations were carried out using G1, G2T1, and G2T6 (Na^+) G4 DNA (100 mM NaCl, 10 mM Li cacodylate, pH 7.3); G1, G2T1, and G2T6 (K^+) G4 DNA (100 mM KCl, 10 mM Li cacodylate, pH 7.3); and CT-DNA (100 mM KCl, 10 mM Li cacodylate, pH 7.3). Ligand concentration was kept constant at 2 μM, and the following DNA equivalents were tested: 0, 0.1, 0.2, 0.3, 0.4, 0.5, 0.75, 1, 1.5, 2, 3, and 5 (for CT-DNA 10× base pair equivalents were used, i.e., 1 to 50 BPE). Sample preparation was carried out by preparing stock solutions of double concentration ligand (4 μM) and DNA in the appropriate buffer, before 50 μL of each was added to the appropriate well and mixed. Experiments were conducted in triplicate and binding constants were obtained by curve fitting in Graphpad Prism 8 using eq 1.[46] [drawing 1] 1
(§5) Fluorescence response (y) was fitted against DNA concentration (x); R is the machine response, K is the association constant of ligand and DNA, L is the concentration of ligand, and n is the number of binding sites per DNA. The values of L and n were varied so that that the L was equal to the number of salphen units and n was equal to the number of G4 faces per DNA. The matrix scan results were used to plot the titration curves and 500–700 nm scan results were used to confirm that expected curve shapes and shifts were observed.

[5] = test system: G2T1 (K+) dimeric HTelo G4 DNA; experiment: Emission titration with G2T1 (K+); format: binding, human; conditions: Table S2, unit not given, ligand 2 μM, 100 mM KCl, 10 mM Li cacodylate, pH 7.3, exc 440 nm, em 590 nm, triplicate
Experimental: as §2, §3, §4, §5

[6] = test system: G1 (Na+) monomeric HTelo G4 DNA, AGGG(TTAGGG)3; experiment: CD melting with G1 (Na+); format: binding, human; conditions: CD melting at 295 nm, 25 to 95 °C at 2 °C/min; 100 mM NaCl, 10 mM Li cacodylate, pH 7.3; [G4 unit] 6 μM, [salphen unit] 12 μM
Experimental: as §1

[7] = test system: G2T6 (K+) dimeric HTelo G4 DNA; experiment: Emission titration with G2T6 (K+); format: binding, human; conditions: Table S2, unit not given, ligand 2 μM, 100 mM KCl, 10 mM Li cacodylate, pH 7.3, exc 440 nm, em 590 nm, triplicate
Experimental: as §2, §3, §4, §5

[8] = test system: CT-DNA (duplex DNA); experiment: Emission titration with duplex DNA; format: binding; conditions: CT-DNA up to 50 base pair equivalents; 100 mM KCl, 10 mM Li cacodylate, pH 7.3; ligand 2 μM
Experimental: Next, emission titrations were carried out with the emissive Pt^II compounds M2 and D3–8 and G4/duplex DNA to obtain association constants. Both Na^+ and K^+ stabilized monomeric and dimeric G4 DNA were investigated. Additionally, titrations were carried out with CT-DNA to evaluate the selectivity for G4 versus duplex DNA. Figure 5 summarizes the obtained results (see Figures S24–S37 and Table S2 for a full set of titration data). First discussed are the experiments conducted in Na^+ buffer, in which the G4 topology formed is antiparallel.[41] […] As discussed previously, this could potentially be caused by a “sandwiched” binding mode in which the metal-salphen complex sits between two G-quadruplex units. For dimeric metal-salphen complexes D3–8, however, there are several differences when compared to the CD melting studies. […] Upon increasing the linker length to a two-amino-acid sequence (RR and KK for compounds D4 and D5, respectively), larger Ka values were obtained with minimal change to the pattern of selectivity. […] Increasing the linker length to an eight-amino-acid sequence (RRRRRRRR) led to a similar stabilization of G2T6, while G1 stabilization increased. […]
G-Quadruplex oligonucleotides were purchased from Eurogentec (Belgium), and CT-DNA was purchased from Sigma-Aldrich. Stock solutions were prepared via dilution in the appropriate buffers to concentrations of 300–400 μM determined by UV–vis measurements in which increasing amounts of DNA were added to a cuvette and the absorbance at 260 nm recorded using an Agilent Cary UV 60 spectrometer. […]
Experiments were carried out using a BMG Clariostar Microplate reader with Greiner Bio-One half-volume (100 μL/well) plates. Excitation was carried out at 440 nm and recorded from 500 to 700 nm in addition to a matrix scan at 590 nm. […]
Fluorescence response (y) was fitted against DNA concentration (x); R is the machine response, K is the association constant of ligand and DNA, L is the concentration of ligand, and n is the number of binding sites per DNA. […]

[9] = test system: G2T1 (Na+) dimeric HTelo G4 DNA, AGGG(TTAGGG)7; experiment: CD melting with G2T1 (Na+); format: binding, human; conditions: CD melting at 295 nm, 25 to 95 °C at 2 °C/min; 100 mM NaCl, 10 mM Li cacodylate, pH 7.3; [G4 unit] 6 μM (3 μM dimeric sequence), [salphen unit] 12 μM
Experimental: as §1

[10] = test system: G2T1 (Na+) dimeric HTelo G4 DNA; experiment: Emission titration with G2T1 (Na+); format: binding, human; conditions: Table S2, unit not given, ligand 2 μM, 100 mM NaCl, 10 mM Li cacodylate, pH 7.3, exc 440 nm, em 590 nm, triplicate
Experimental: as §2, §3, §4, §5

[11] = test system: G1 (Na+) monomeric HTelo G4 DNA; experiment: Emission titration with G1 (Na+); format: binding, human; conditions: Table S2, unit not given, ligand 2 μM, 100 mM NaCl, 10 mM Li cacodylate, pH 7.3, exc 440 nm, em 590 nm, triplicate
Experimental: as §2, §3, §4, §5

[12] = test system: G2T6 (Na+) dimeric HTelo G4 DNA; experiment: Emission titration with G2T6 (Na+); format: binding, human; conditions: Table S2, unit not given, ligand 2 μM, 100 mM NaCl, 10 mM Li cacodylate, pH 7.3, exc 440 nm, em 590 nm, triplicate
Experimental: as §2, §3, §4, §5

[13] = test system: human osteosarcoma U2OS cells
Experimental: Cytotoxicity studies of compounds were carried out on a U-2 OS cell line (human osteosarcoma cells). These cells were grown on culture medium McCoy’s 5A Medium supplemented with 10% FBS (Fetal Bovine Serum) in an atmosphere of 95% air and 5% CO2 at 37 °C. Inhibition of cell growth induced by the tested compound was evaluated using a MTT assay. The cells were seeded in a sterile 96-well plate at a density of 15,000 cells per well and incubated for 24 h in growth medium. Afterward, the compound dissolved in H2O or DMSO was added to the cells maintaining the same proportion of solvent in each well. After 48 h of incubation in an atmosphere of 95% air and 5% CO2 at 37 °C, 10 μL of 5 mg/mL MTT prepared in PBS (0.136 M NaCl, 1.47 mM KH2PO4, 8 mM NaH2PO4, and 2.68 mM KCl) was added to each well, and the cell plate was incubated for another 4 h. […] Finally, absorbance of the cell plate was measured at a wavelength of 595 nm (Tecan M1000 infinite Pro). […] The absorbance measurement range was assessed between one value (average of triplicate points) containing 15,000 cells in McCoy’s 5A medium and in the absence of growth factors (which allows to determine the stable cell concentration) and another value (average of triplicate points) containing the usual growth medium (which allows to measure the maximum cell growth at 48 h). […]

[14] = Precipitation on addition to DNA solution (CD melting conditions); format: physicochemical; conditions: CD melting concentrations: dimeric salphen 6 μM, G1 6 μM or G2Tx 3 μM; 100 mM NaCl, 10 mM Li cacodylate, pH 7.3
Experimental: First, circular dichroism (CD) melting experiments were carried out with compounds D1–8 and their monomeric analogues M1–2 via the combination of DNA and compound in which the ratio of salphen units to G4 external tetrads was kept at a constant ratio of 2:1, i.e., [monomeric salphen] = 12 μM, [dimeric salphen] = 6 μM, [G1] = 6 μM, and [G2Tx] = 3 μM. The CD melting experiments were conducted solely with Na^+ stabilized DNA, which forms an antiparallel topology in solution (cf., in the presence of K^+ a mixture of topologies is observed). During the assay the temperature was increased from 25 to 95 °C upon which the intensity of signals with negative ellipticity at ca. 265 nm and positive ellipticity at ca. 295 (characteristic of an antiparallel G4 structure) decreased—see Figure 4a. This indicates the expected unfolding of the G4 DNA structure as the temperature increases. […] From these curves, the ΔTm values for the different sequences and compounds were determined, and the results are summarized in Figure 4c (see Supplementary Table 1 for values).
Experiments were carried out on a Jasco J-810 spectrophotometer using a 1 cm quartz cuvette. […] The signal at 295 nm was monitored as temperature was increased for 25 to 95 °C at a rate of 2 °C/min. […]

Molecule | ΔTm ([1]; 6 μM compound (12 μM salphen units)) | ΔTm [2] | ΔTm ([1]; 6 μM compound, b22 states 1.1–1.5 °C for D1–4) | ΔTm G2T6 (Na+) [3] | Association constant G1 (K+), mean [4] | Association constant G2T1 (K+), mean [5] | ΔTm G1 (Na+) [6] | Association constant G2T6 (K+), mean [7] | Ka for duplex DNA [8] | ΔTm G2T1 (Na+) [9] | Association constant G2T1 (Na+), mean [10] | Association constant G1 (Na+), mean [11] | Association constant G2T6 (Na+), mean [12] | IC50 [13] | precipitation on addition to the DNA solution [14]
C[N+](C)(C)CCOc1ccc(C=Nc2ccc(C(=O)NCc3cn(CC(=O)N[C@@H](CCCCN)C(=O)N[C@@H](CCCCN)C(=O)N[C@@H](Cn4cc(CNC(=O)c5ccc(N=Cc6ccc(OCC[N+](C)(C)C)cc6[O-])c(N=Cc6ccc(OCC[N+](C)(C)C)cc6[O-])c5)nn4)C(N)=O)nn3)cc2N=Cc2ccc(OCC[N+](C)(C)C)cc2[O-])c([O-])c1.[Pt+2].[Pt+2] | 5.5 °C | – | – | – | – | – | – | – | – | – | – | – | – | – | –
C[N+](C)(C)CCOc1ccc(C=Nc2ccc(C(=O)NCc3cn(CCOCCn4cc(CNC(=O)c5ccc(N=Cc6ccc(OCC[N+](C)(C)C)cc6[O-])c(N=Cc6ccc(OCC[N+](C)(C)C)cc6[O-])c5)nn4)nn3)cc2N=Cc2ccc(OCC[N+](C)(C)C)cc2[O-])c([O-])c1.[Pt+2].[Pt+2] | – | 6.4 °C | 3.0 °C | – | – | – | – | – | – | – | – | – | – | – | –
C[N+](C)(C)CCOc1ccc2c(c1)[O][Pt][O]c1cc(OCC[N+](C)(C)C)ccc1C=Nc1ccccc1N=C2 [Compound M2, reference compound] | – | – | – | 19.55 °C and 19 °C | 2.00 | 0.80 | 12.72 °C | 1.44 | 7.31 × 10^4 M^–1 | 21.67 °C and 21 °C | 1.70 | 1.70 | 2.93 | – | –
RRRRRRRR [Compound D8] | – | – | – | – | 0.84 | 0.22 | – | 0.38 | – | – | 0.31 | 0.47 | 0.75 | 43 µM | caused precipitation
